Converted amounts (≈) assume the structure as drawn.
Test system: not given
Assay: not given
Settings: not given

Compound	melting point
CCc1nc2ccc(Cl)cn2c1C(=O)NCc1ccc(CN2CCOCC2)cc1 [Compound 284]	133 °C
CCc1nc2cc(Cl)ccn2c1C(=O)NCc1ccc(C2CCOCC2)cc1 [Compound 259]	> 156.6 °C (dec.)
CCc1nc2ccc(Cl)cn2c1C(=O)NCc1ccc(N2CCC(C(=O)Cc3ccc(F)cc3)CC2)cc1 [Compound 244]	216.2 to 220.7 °C

Test system: M. tuberculosis
Assay: microbe, parasite or virus in culture
Format: cell-based
Settings: Mycobacterium tuberculosis, 120 h; read-out: QUM (MIC80)

Compound	MIC80 [µM]
CCc1nc2ccc(Cl)cn2c1C(=O)NCc1ccc(CN2CCOCC2)cc1 [Compound 284]	< 1
CCc1nc2cc(Cl)ccn2c1C(=O)NCc1ccc(C2CCOCC2)cc1 [Compound 259]	< 1
Cc1ccc(C2CCN(c3ccc(CNC(=O)c4c(C)nc5ccc(Cl)cn45)cc3)CC2)cc1 [Compound 326]	< 1
CCc1nc2cc(F)ccn2c1C(=O)NCc1ccc(N2CCN(c3ccc(OC)cc3)CC2)cc1 [Compound 74]	< 1
CCc1nc2ccc(OC)cn2c1C(=O)NCc1ccc(N2CCC(c3ccccc3)CC2)cc1 [Compound 118]	< 1
CCc1nc2ccc(Cl)cn2c1C(=O)NCc1ccc2cc[nH]c2c1 [Compound 273]	< 1
CCc1nc2cc(Cl)ccn2c1C(=O)NCc1ccc(C(=O)N(C)c2ccc(F)cc2)cc1 [Compound 306]	1 to 20 (≈ 0.465 to 9.3 µg/mL)
CCc1nc2ccc(F)cn2c1C(=O)NCc1ccc(N2CCC(c3ccc(OC)cc3)CC2)cc1 [Compound 150]	< 1
CCc1nc2ccc(Cl)cn2c1C(=O)NCc1ccc(N2CCC(c3ccc(C=O)cc3)CC2)cc1 [Compound 346]	< 1
CCc1nc2c(Cl)cccn2c1C(=O)NCc1ccc(N2CCN(c3ccc(OC)cc3)CC2)cc1 [Compound 50]	< 1
CCc1nc2c(F)cccn2c1C(=O)NCc1ccc(N2CCN(c3ccc(Cl)cc3)CC2)cc1 [Compound 63]	< 1
CCc1nc2c(Cl)cccn2c1C(=O)NCc1ccc(N2CCN(c3ccccc3)CC2)cc1 [Compound 64]	< 1
Cc1nc2cc(F)ccn2c1C(=O)NCc1ccc(N2CCC(c3ccc(OC(F)(F)F)cc3)CC2)cc1 [Compound 350]	< 1
CCc1nc2ccccn2c1C(=O)NCc1ccc(N2CCC(c3ccc(C)cc3)CC2)cc1 [Compound 157]	< 1
CCc1nc2ccc(OC)cn2c1C(=O)NCc1ccc(N2CCC(c3ccc(OC)cc3)CC2)cc1 [Compound 123]	< 1
CCc1nc2ccc(Cl)cn2c1C(=O)NCc1ccc(N2CCC(NC(=O)c3ccc(F)cc3)CC2)cc1 [Compound 234]	> 20
CCc1nc2c(Br)cccn2c1C(=O)NCc1ccc(N2CCC(c3ccc(OC)cc3)CC2)cc1 [Compound 89]	1 to 20 (≈ 0.547 to 10.9 µg/mL)
CCc1nc2ccc(Cl)cn2c1C(=O)NCc1ccc(N2CCN(c3ccccc3)CC2)cc1 [Compound 68]	< 1
CCc1nc2cc(Cl)ccn2c1C(=O)NCc1ccc(N2CC[C@@H](Oc3ccc(Cl)cc3)C2)cc1 [Compound 341]	< 1
CCc1nc2cc(C)ccn2c1C(=O)NCc1ccc(N2CCC(c3ccc(F)cc3)CC2)cc1 [Compound 163]	< 1
CCc1nc2cc(C(F)(F)F)ccn2c1C(=O)NCc1ccc(N2CCN(c3ccc(C)cc3)CC2)cc1 [Compound 106]	< 1
CCc1nc2cc(Cl)ccn2c1C(=O)NCc1ccc(N2CCC(C(=O)OCCN3CCOCC3)CC2)cc1 [Compound 337]	< 1
CCc1nc2cc(C(F)(F)F)ccn2c1C(=O)NCc1ccc(N2CCC(c3ccc(OC)cc3)CC2)cc1 [Compound 124]	< 1
CCc1nc2ccc(C)cn2c1C(=O)NCc1ccc(N2CCC(c3ccc(OC)cc3)CC2)cc1 [Compound 222]	< 1
CCc1nc2c(Br)cccn2c1C(=O)NCc1ccc(N2CCC(c3ccc(Cl)cc3)CC2)cc1 [Compound 213]	< 1

Compound	MIC80 [µM]
CCc1nc2c(OC)cccn2c1C(=O)NCc1ccc(N2CCN(c3ccc(C)cc3)CC2)cc1 [Compound 104]	1 to 20 (≈ 0.484 to 9.67 µg/mL)
CCc1nc2ccc(C(F)(F)F)cn2c1C(=O)NCc1ccc(N2CCN(c3ccccc3)CC2)cc1 [Compound 80]	< 1
CCc1nc2c(C(F)(F)F)cccn2c1C(=O)NCc1ccc(N2CCN(c3ccc(C(F)(F)F)cc3)CC2)cc1 [Compound 217]	1 to 20 (≈ 0.576 to 11.5 µg/mL)
CCc1nc2cc(F)ccn2c1C(=O)NCc1ccc(N2CCC(c3ccc(F)cc3)CC2)cc1 [Compound 137]	< 1
CCc1nc2c(Br)cccn2c1C(=O)NCc1ccc(N2CCC(c3ccc(F)cc3)CC2)cc1 [Compound 189]	1 to 20 (≈ 0.535 to 10.7 µg/mL)
CCc1nc2c(C(F)(F)F)cccn2c1C(=O)NCc1ccc(N2CCN(c3ccc(Cl)cc3)CC2)cc1 [Compound 209]	1 to 20 (≈ 0.542 to 10.8 µg/mL)
CCc1nc2cc(Br)ccn2c1C(=O)NCc1ccc(N2CCC(c3ccc(C(F)(F)F)cc3)CC2)cc1 [Compound 132]	< 1
CCc1nc2cc(F)ccn2c1C(=O)NCc1ccc(N2CCN(c3ccc(OC(F)(F)F)cc3)CC2)cc1 [Compound 116]	< 1
CCc1nc2c(C(F)(F)F)cccn2c1C(=O)NCc1ccc(N2CCC(c3ccc(OC)cc3)CC2)cc1 [Compound 27]	1 to 20 (≈ 0.537 to 10.7 µg/mL)
CCc1nc2ccc(Cl)cn2c1C(=O)NCc1ccc(N2CCN(C(=O)c3ccc(F)cc3)CC2)cc1 [Compound 235]	< 1
CCc1nc2ccc(C)cn2c1C(=O)NCc1ccc(N2CCN(c3ccccc3)CC2)cc1 [Compound 9]	< 1
CCc1nc2ccc(C(F)(F)F)cn2c1C(=O)NCc1ccc(N2CCN(c3ccc(Cl)cc3)CC2)cc1 [Compound 121]	< 1
CCc1nc2cc(Br)ccn2c1C(=O)NCc1ccc(N2CCN(c3ccc(C(F)(F)F)cc3)CC2)cc1 [Compound 214]	< 1
CCc1nc2c(F)cccn2c1C(=O)NCc1cccc(N2CCOCC2)c1 [Compound 281]	1 to 20 (≈ 0.382 to 7.65 µg/mL)
CCc1nc2ccc(Br)cn2c1C(=O)NCc1ccc(N2CCN(c3ccc(OC(F)(F)F)cc3)CC2)cc1 [Compound 197]	< 1
CCc1nc2ccc(Cl)cn2c1C(=O)NCc1ccc(N2CCC(O)(CC)CC2)cc1 [Compound 238]	< 1
CCc1nc2cc(Cl)ccn2c1C(=O)NCc1ccc2c(c1)ncn2C [Compound 272]	1 to 20 (≈ 0.368 to 7.36 µg/mL)
Cc1ccc(C2CCN(c3ccc(CNC(=O)c4c(C)nc5cc(Cl)ccn45)cc3)CC2)cc1 [Compound 299]	< 1
CCc1nc2cc(OC)ccn2c1C(=O)NCc1ccc(N2CCN(c3ccc(OC)cc3)CC2)cc1 [Compound 110]	< 1
CCc1nc2cc(OC)ccn2c1C(=O)NCc1ccc(N2CCC(c3ccc(OC(F)(F)F)cc3)CC2)cc1 [Compound 184]	< 1
CCc1nc2cc(Cl)ccn2c1C(=O)NCc1ccc2ncn(Cc3ccc(OC(F)(F)F)cc3)c2c1 [Compound 275]	> 20
CCc1nc2cc(Cl)ccn2c1C(=O)NCc1ccc2oc(CN3CCOCC3)nc2c1 [Compound 332]	1 to 20 (≈ 0.454 to 9.08 µg/mL)
CCc1nc2ccc(Br)cn2c1C(=O)NCc1ccc(N2CCC(c3ccc(OC(F)(F)F)cc3)CC2)cc1 [Compound 187]	< 1
CCc1nc2ccc(Cl)cn2c1C(=O)NCc1ccc(N2CCN(c3ccc(Cl)cc3)CC2)cc1 [Compound 45]	< 1
CCc1nc2c(OC)cccn2c1C(=O)NCc1ccc(N2CCC(c3ccc(OC(F)(F)F)cc3)CC2)cc1 [Compound 117]	1 to 20 (≈ 0.553 to 11.1 µg/mL)

Compound	MIC80 [µM]
CCc1nc2c(C(F)(F)F)cccn2c1C(=O)NCc1ccc(N2CCN(c3ccc(OC)cc3)CC2)cc1 [Compound 105]	1 to 20 (≈ 0.538 to 10.8 µg/mL)
CCc1nc2cc(Cl)ccn2c1C(=O)NCc1ccc(-c2ccc(C(=O)O)cc2)cc1 [Compound 335]	< 1
CCc1nc2cc(Br)ccn2c1C(=O)NCc1ccc(N2CCC(c3ccc(C)cc3)CC2)cc1 [Compound 219]	< 1
CCc1nc2c(Br)cccn2c1C(=O)NCc1ccc(N2CCC(c3ccc(OC(F)(F)F)cc3)CC2)cc1 [Compound 185]	1 to 20 (≈ 0.601 to 12 µg/mL)
CCc1nc2ccc(Cl)cn2c1C(=O)NCc1ccc(C(=O)Nc2ccc(F)cc2)cc1 [Compound 301]	< 1
CCc1nc2cc(Br)ccn2c1C(=O)NCc1ccc(N2CCN(c3ccc(Cl)cc3)CC2)cc1 [Compound 135]	< 1
Cc1nc2ccc(Cl)cn2c1C(=O)NCc1ccc(N2CCC(c3ccc(C(F)(F)F)cc3)CC2)cc1 [Compound 327]	< 1
CCc1nc2c(C)cccn2c1C(=O)NCc1ccc(N2CCN(c3ccc(C(F)(F)F)cc3)CC2)cc1 [Compound 40]	< 1
CCc1nc2c(C(F)(F)F)cccn2c1C(=O)NCc1ccc(N2CCC(c3ccc(C)cc3)CC2)cc1 [Compound 25]	1 to 20 (≈ 0.521 to 10.4 µg/mL)
Cc1ccc(C2CCN(c3ccc(CNC(=O)c4c(C)nc5c(F)cccn45)cc3)CC2)cc1 [Compound 309]	< 1
CCc1nc2cc(OC)ccn2c1C(=O)NCc1ccc(N2CCC(c3ccc(C(F)(F)F)cc3)CC2)cc1 [Compound 195]	< 1
CCc1nc2cc(C(F)(F)F)ccn2c1C(=O)NCc1ccc(N2CCC(c3ccc(F)cc3)CC2)cc1 [Compound 4]	< 1
CCc1nc2cc(C)ccn2c1C(=O)NCc1ccc(N2CCC(c3ccc(Cl)cc3)CC2)cc1 [Compound 52]	< 1
CCc1nc2ccc(F)cn2c1C(=O)NCc1ccc(N2CCC(c3ccc(C)cc3)CC2)cc1 [Compound 115]	< 1
CCc1nc2c(Cl)cccn2c1C(=O)NCc1ccc(N2CCN(c3ccc(C(F)(F)F)cc3)CC2)cc1 [Compound 49]	< 1
CCc1nc2ccccn2c1C(=O)NCc1ccc(N2CCC(c3ccc(Cl)cc3)CC2)cc1 [Compound 139]	< 1
CCc1nc2ccc(C(F)(F)F)cn2c1C(=O)NCc1ccc(N2CCN(c3ccc(F)cc3)CC2)cc1 [Compound 87]	< 1
CCc1nc2cc(Cl)ccn2c1C(=O)NCc1ccc(N2CCN(c3ccc(Cl)cc3)CC2)cc1 [Compound 194]	< 1
CCc1nc2ccc(Cl)cn2c1C(=O)NCc1ccc(N2CCC(c3ccc(CO)cc3)CC2)cc1 [Compound 345]	< 1
Cc1nc2c(F)cccn2c1C(=O)NCc1ccc(N2CCC(c3ccc(C(F)(F)F)cc3)CC2)cc1 [Compound 310]	< 1
CCc1nc2cc(OC)ccn2c1C(=O)NCc1ccc(N2CCC(c3ccc(F)cc3)CC2)cc1 [Compound 20]	< 1
CCc1nc2cc(Cl)ccn2c1C(=O)NCc1ccc(N2CCC(c3ccc(C(F)(F)F)cc3)CC2)cc1 [Compound 13]	< 1
CCc1nc2cc(Br)ccn2c1C(=O)NCc1ccc(N2CCC(c3ccc(Cl)cc3)CC2)cc1 [Compound 134]	< 1
CCc1nc2ccc(Cl)cn2c1C(=O)NCc1ccc(C2CCN(C(=O)c3ccc(F)cc3)CC2)cc1 [Compound 243]	< 1

— US20160185774A1, “Anti-Infective Compounds” (priority 2013, published 2016)
